Literature values as cited in patent publication US20040142847A1, “Detergent tablets with polyurethane coating” (priority 2002, published 2004).
Values after ≈ are worked out from the molar mass of the structure shown. Read-outs that look alike come from different tables or passages of the source. Values belong to the molecule of their own block, whether it stands above or below them.

What was measured:
[1] = for amount of the anhydrous salt that dissolves in 100 g of water: per 100 g of water
[2] = after heating the solution at 100° C. for two hours
[3] = 1% strength solution at 25°
[4] = 20° C., listing of preferred solubilizers
[5] = 20° C., listing of suitable solubilizers
[6] = 25° C., listing of preferred solubilizers

Molecule: O=C(O)CC(O)C(=O)O (racemic) [DL-Malic acid]
solubility in water ([1]; 26° C., listing of preferred solubilizers): 1440 g/L (≈ 10700 mM)
solubility in water ([1]; 26° C., listing of suitable solubilizers): 1440 g/L (≈ 10700 mM)

Molecule: [Cl-].[K+] [Potassium chloride]
solubility in water [1, 4]: 340 g/L
solubility in water [1, 5]: 340 g/L

solubility in water [1, 6]: 788 g/L (≈ 6790 mM)
Molecule: O=C(O)/C=C\C(=O)O [Maleic acid]

solubility in water [1, 5]: 1000 g/L
Molecule: Sodium polyphosphate

Molecule: [Cl-].[Cs+] [Cesium chloride]
solubility in water [1, 4]: 1800 g/L
solubility in water [1, 5]: 1800 g/L

Molecule: O=C(CO)[C@@H](O)[C@H](O)[C@@H](O)CO [L(−)-sorbose]
solubility in water ([1]; 17° C., listing of preferred solubilizers): 550 g/L (≈ 3050 mM)

solubility in water [1, 6]: 680 g/L (≈ 3770 mM)
Molecule: O=C[C@H](O)[C@@H](O)[C@@H](O)[C@H](O)CO [D(+)-Galactose]

diphosphate produced by hydrolysis [2]: ~15%
orthophosphate produced by hydrolysis [2]: about 8%
amount of the anhydrous salt that dissolves in 100 g of water ([1]; 60°): about 20 g
amount of the anhydrous salt that dissolves in 100 g of water ([1]; 100°): around 32 g
amount of the anhydrous salt that dissolves in 100 g of water ([1]; room temperature): About 17 g
Molecule: O=P([O-])([O-])OP(=O)([O-])OP(=O)([O-])[O-].[Na+].[Na+].[Na+].[Na+].[Na+] [pentasodium triphosphate]

Molecule: NC(N)=O [Urea]
solubility in water [1, 4]: 1080 g/L (≈ 18000 mM)
solubility in water [1, 5]: 1080 g/L (≈ 18000 mM)

Molecule: O=P([O-])([O-])OP(=O)([O-])[O-].[K+].[K+].[K+].[K+] [Potassium diphosphate]
pH of the 1% strength solution [3]: 10.4

Molecule: [Cl-].[Cl-].[Zn+2] [Zinc chloride]
solubility in water [1, 4]: 3680 g/L
solubility in water [1, 5]: 3680 g/L
